Values joined by “and” are separate entries in the source; they are usually repeats but may differ in a detail not shown here. Equal entries are not always repeated. Inconclusive results and toxic doses are left out. The calls were made as follows: active = survival T/C of 150% or more; inactive = T/C below 125% in these data.
Test system: BDF1 mice, P388 leukemia ip, median survival T/C
Assay: NCI In Vivo Anticancer Drug Screen. Data for tumor model P388 Leukemia (intraperitoneal) in B6D2F1 (BDF1) mice
Settings: endpoint: median survival time, higher = longer survival
Method in brief: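 In tumour-bearing mice, survival after compound treatment is set against the vehicle group and given as a quotient.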

[1] = dose: 25.0 mg/kg/injection, schedule: Q01DX009 (ip), vehicle: saline
[2] = dose: 50.0 mg/kg/injection, schedule: Q04DX003 (ip), vehicle: Klucel (hydroxypropylcellulose) (HPC)
[3] = dose: 100.0 mg/kg/injection, schedule: Q04DX003 (ip), vehicle: Klucel (hydroxypropylcellulose) (HPC)
[4] = dose: 50.0 mg/kg/injection, schedule: Q01DX009 (ip), vehicle: saline

Measured: T/C

Nc1ccc2cc3ccc(N)cc3nc2c1
inactive: [1] 86 % of control

Oc1cccc2c1[O][Sb][O]2
inactive: dose: 3.0 mg/kg/injection, schedule: Q01DX009 (ip), vehicle: saline with Tween-80 102 % of control | dose: 6.0 mg/kg/injection, schedule: Q01DX009 (ip), vehicle: saline with Tween-80 110 % of control | dose: 11.0 mg/kg/injection, schedule: Q04DX003 (ip), vehicle: saline with Tween-80 112 % of control | dose: 16.5 mg/kg/injection, schedule: Q04DX003 (ip), vehicle: saline with Tween-80 112 % of control | dose: 25.0 mg/kg/injection, schedule: Q01DX009 (ip), vehicle: saline with Tween-80 110 % of control

O=S1(=O)C=C(Cl)C2C3CC(C(Cl)C3Cl)C21 (stereo not given)
inactive: dose: 7.5 mg/kg/injection, schedule: Q01DX009 (ip), vehicle: saline with Tween-80 100 % of control | dose: 15.0 mg/kg/injection, schedule: Q01DX009 (ip), vehicle: saline with Tween-80 113 % of control | dose: 30.0 mg/kg/injection, schedule: Q01DX009 (ip), vehicle: saline with Tween-80 104 % of control

COc1cc2c3c(c1)C(=O)CCN3CCC2
inactive: [2] 95 % of control | [3] 95 % of control | dose: 200.0 mg/kg/injection, schedule: Q04DX003 (ip), vehicle: Klucel (hydroxypropylcellulose) (HPC) 87 % of control

CN=C1N[N+]2=C(C)CCCC2S1 (stereo not given)
inactive: [1] 97 % of control | [4] 91 % of control | dose: 100.0 mg/kg/injection, schedule: Q01DX009 (ip), vehicle: saline 99 % of control

Oc1ccc(O)cc1
inactive: dose: 25.0 mg/kg/injection, schedule: Q04DX003 (ip), vehicle: Klucel (hydroxypropylcellulose) (HPC) 106 % of control | [4] 112 % of control | [2] 110 % of control | dose: 66.0 mg/kg/injection, schedule: Q01DX009 (ip), vehicle: saline 100 % of control | [3] 112 % of control

O=C(O)c1c[nH]n2c(=S)ncnc12
inactive: dose: 50.0 mg/kg/injection, schedule: Q01DX009 (ip), vehicle: saline with Tween-80 93 % of control | dose: 50.0 mg/kg/injection, schedule: Q04DX003 (ip), vehicle: saline with Tween-80 104 % of control | dose: 100.0 mg/kg/injection, schedule: Q01DX009 (ip), vehicle: saline with Tween-80 104 % of control | dose: 100.0 mg/kg/injection, schedule: Q04DX003 (ip), vehicle: saline with Tween-80 91 % of control | dose: 200.0 mg/kg/injection, schedule: Q01DX009 (ip), vehicle: saline with Tween-80 100 % of control | dose: 200.0 mg/kg/injection, schedule: Q04DX003 (ip), vehicle: saline with Tween-80 87 % of control | dose: 400.0 mg/kg/injection, schedule: Q01DX009 (ip), vehicle: saline with Tween-80 93 % of control | dose: 400.0 mg/kg/injection, schedule: Q04DX003 (ip), vehicle: saline with Tween-80 95 % of control

COc1cc2c(cc1OC)C(=O)N(C)CC2
inactive: [4] 105 % of control | dose: 100.0 mg/kg/injection, schedule: Q01DX009 (ip), vehicle: water 97 % of control | dose: 200.0 mg/kg/injection, schedule: Q01DX009 (ip), vehicle: saline 119 % of control

Cc1c2oc3c(C)ccc(C(=O)NCc4ccccc4)c3nc-2c(C(=O)NCc2ccccc2)c(N)c1=O
inactive: dose: 100.0 mg/kg/injection, schedule: Q04DX002 (sc), vehicle: olive oil, sesame oil, peanut oil 99 % of control | dose: 200.0 mg/kg/injection, schedule: Q04DX002 (sc), vehicle: olive oil, sesame oil, peanut oil 98 % of control | dose: 400.0 mg/kg/injection, schedule: Q04DX002 (sc), vehicle: olive oil, sesame oil, peanut oil 101 % of control

N=c1ccn(C(=O)C2=Cc3ccccc3OC2)cc1
inactive: dose: 1.25 mg/kg/injection, schedule: Q01DX009 (ip), vehicle: saline with Tween-80 88 % of control and 112 % of control | dose: 2.5 mg/kg/injection, schedule: Q01DX009 (ip), vehicle: saline with Tween-80 96 % of control and 100 % of control | dose: 5.0 mg/kg/injection, schedule: Q01DX009 (ip), vehicle: saline with Tween-80 92 % of control and 100 % of control and 112 % of control | dose: 5.0 mg/kg/injection, schedule: Q04DX003 (ip), vehicle: saline with Tween-80 118 % of control | dose: 10.0 mg/kg/injection, schedule: Q04DX003 (ip), vehicle: saline with Tween-80 95 % of control | dose: 20.0 mg/kg/injection, schedule: Q04DX003 (ip), vehicle: saline with Tween-80 90 % of control

From PubChem BioAssay AID328 (DTP/NCI, 2004)
